Data as given in US20070054884A1 (priority 2005, published 2007).
Converted amounts (≈) assume the structure as drawn.

Tests used:
[1] = tested on: B.anthracis V770-NR1-R; assay: microbe, parasite or virus in culture; format: cell-based; settings: Bacillus anthracis, V770NR1R, read-out: MIC B.anthracis V770-NR1-R
[2] = tested on: S. aureus 29213; assay: Minimum Inhibitory Concentration (MIC), broth dilution method; format: cell-based; settings: Staphylococcus aureus, 29213, read-out: MIC S. aureus 29213
Procedure: (§1) Minimum Inhibitory Concentration (MIC), Broth Dilution Method:
(§2) The compounds of the present invention were tested against selected Gram positive and Gram negative organisms using standard microtitration techniques well known to those skilled in the art. Cultures of bacteria were initially applied by streaking a loopful onto agar plates under the appropriate conditions. For example, bacterial stocks are streaked for isolation of single colonies onto chocolate agar and then incubated for 18 hours at 35-37° C. in a 5% CO2 incubator. Five to ten colonies were picked from the chocolate agar plate for subculture to Brain-Heart infusion (BHI) broth, Mueller Hinton broth, or BHI containing 4% serum, and incubated under the appropriate conditions. The ability of the test compound to act as an antimicrobial was determined by the ability of dilutions of the test substance to inhibit bacterial growth in vitro. The optical density of the culture of organisms in the presence of an active compound was compared to the optical density of the same organism grown without test compound. The activity of the compounds is described as either negative or the lowest concentration inhibiting growth (Minimum Inhibitory Concentration [MIC]).
(§3) The activity of selected compounds of the present invention against representative Gram positive and Gram negative bacteria are shown in the following Table 1.

[3] = tested on: S. pneumoniae 11733; assay: as above; format: cell-based; settings: Streptococcus pneumoniae, 11733, read-out: MIC S. pneumoniae 11733
Procedure: as §1, §2, §3

[4] = tested on: B. cereus; assay: as above; format: cell-based; settings: Bacillus cereus, read-out: MIC B. cereus
Procedure: as §1, §2, §3

| SMILES | melting point [°C] | MIC [1] [µg/mL] | MIC [2] [µg/mL] | MIC [3] [µg/mL] | MIC [4] [µg/mL] |
| --- | --- | --- | --- | --- | --- |
| N#Cc1cc(Cl)ccc1Oc1cc(N2CCOCC2)c(F)cc1O | 149 to 151 |  |  |  |  |
| O=C(O)c1cc(Oc2ccc(Cl)cc2Cl)c(O)cc1Cl | 192 to 196 |  |  |  |  |
| Oc1cc(Cl)c(N2CCOCC2)cc1Oc1ccc(Cl)cc1Cl [Example 1, 5-Chloro-2-(2,4-dichlorophenoxy)-4-morpholin-4-yl-phenol] | 187 to 188 | 1600 (≈ 4.27 mM) | 500 (≈ 1.33 mM) | 1000 (≈ 2.67 mM) | 800 (≈ 2.14 mM) |
| CN1CCN(c2cc(Oc3ccc(Cl)cc3Cl)c(O)cc2Cl)CC1 [Example 2, 5-Chloro-2-(2,4-dichloro-phenoxy)-4-(4-methyl-piperazin-1-yl)-phenol] |  | > 25000 | 60 (≈ 0.155 mM) | 250 (≈ 0.645 mM) | > 25000 |
| Oc1cc(Cl)c(-c2cccs2)cc1Oc1ccc(Cl)cc1Cl [Example 3, 5-Chloro-2-(2,4-dichloro-phenoxy)-4-thiophen-2-yl-phenol] |  | 50 (≈ 0.135 mM) | 60 (≈ 0.161 mM) | 10 (≈ 0.0269 mM) | 50 (≈ 0.135 mM) |
| Oc1cc(Cl)c(-c2ccco2)cc1Oc1ccc(Cl)cc1Cl [Example 4, 5-Chloro-2-(2,4-dichloro-phenoxy)-4-furan-2-yl-phenol] |  |  | 500 (≈ 1.41 mM) | 500 (≈ 1.41 mM) |  |
| Oc1cc(Cl)c(-c2ccsc2)cc1Oc1ccc(Cl)cc1Cl [Example 5, 5-Chloro-2-(2,4-dichloro-phenoxy)-4-thiophen-3-yl-phenol] |  | 400 (≈ 1.08 mM) | 130 (≈ 0.35 mM) | 10 (≈ 0.0269 mM) | 200 (≈ 0.538 mM) |
| OB(O)c1cc(Oc2ccc(Cl)cc2Cl)c(O)cc1Cl [Example 6, 2-Chloro-5-(2,4-dichloro-phenoxy)-4-hydroxy-phenylboronic acid] | 180 to 183 |  | 500 (≈ 1.5 mM) |  |  |
| CCOC(=O)NC(=S)Nc1cc(Oc2ccc(Cl)cc2Cl)c(O)cc1Cl [Example 7] | 170 to 172 | 1600 (≈ 3.67 mM) | 2000 (≈ 4.59 mM) | 31300 (≈ 71.8 mM) | 800 (≈ 1.84 mM) |
| CCOC(=O)NC(=S)Nc1ccc(O)c(Oc2ccccc2O)c1 [Example 9, 1-[4-Hydroxy-3-(2-hydroxy-phenoxy)-phenyl]-3-(ethylozycarbonyl)thiourea] |  | 3100 (≈ 8.9 mM) | 31300 (≈ 89.8 mM) | 62500 (≈ 179 mM) | 12500 (≈ 35.9 mM) |
| Oc1cc(Cl)c(NC(=S)Nc2ccc(F)cc2)cc1Oc1ccc(Cl)cc1Cl [Example 10, 1-[2-Chloro-5-(2,4-dichloro-phenoxy)-4-hydroxy-phenyl]-3-(4-fluoro-phenyl)-thiourea] | 89 to 91 | 1600 (≈ 3.5 mM) | 4000 (≈ 8.74 mM) | 31300 (≈ 68.4 mM) | 400 (≈ 0.874 mM) |
| COc1ccc(NC(=S)Nc2cc(Oc3ccc(Cl)cc3Cl)c(O)cc2Cl)cc1 [Example 11, 1-[2-Chloro-5-(2,4-dichloro-phenoxy)-4-hydroxy-phenyl]-3-(4-methoxy-phenyl)-thiourea] |  |  | 7900 (≈ 16.8 mM) | 31300 (≈ 66.6 mM) |  |
| Oc1cc(Cl)c(NC(=S)NC2CCCCC2)cc1Oc1ccc(Cl)cc1Cl [Example 12, 1-[2-Chloro-5-(2,4-dichloro-phenoxy)-4-hydroxy-phenyl]-3-cyclohexyl-thiourea] |  |  | 2000 (≈ 4.49 mM) | 31300 (≈ 70.2 mM) |  |
| O=[N+]([O-])c1ccc(NC(=S)Nc2cc(Oc3ccc(Cl)cc3Cl)c(O)cc2Cl)cc1 [Example 13, 1-[2-Chloro-5-(2,4-dichloro-phenoxy)-4-hydroxy-phenyl]-3-(4-nitro-phenyl)-thiourea] |  |  | 1000 (≈ 2.06 mM) | 15600 (≈ 32.2 mM) |  |
| O=C(Nc1cc(C(F)(F)F)cc(C(F)(F)F)c1)Nc1cc(Oc2ccc(Cl)cc2Cl)c(O)cc1Cl [Example 15, 1-(3,5-Bis-trifluoromethyl-phenyl)-3-[2-chloro-5-(2,4-dichloro-phenoxy)-4-hydroxy-phenyl]-urea] |  | 800 (≈ 1.43 mM) | 4000 (≈ 7.15 mM) |  | 100 (≈ 0.179 mM) |
| Oc1cc(Cl)c(NC(=S)Nc2cc(C(F)(F)F)cc(C(F)(F)F)c2)cc1Oc1ccc(Cl)cc1Cl [Example 16, 1-(3,5-Bis-trifluoromethyl-phenyl)-3-[2-chloro-5-(2,4-dichloro-phenoxy)-4-hydroxy-phenyl]-thiourea] |  | 200 (≈ 0.347 mM) | 500 (≈ 0.868 mM) |  | 100 (≈ 0.174 mM) |

| SMILES | melting point [°C] | MIC [1] [µg/mL] | MIC [2] [µg/mL] | MIC [3] [µg/mL] | MIC [4] [µg/mL] |
| --- | --- | --- | --- | --- | --- |
| Oc1cc(Cl)c(-n2cccc2)cc1Oc1ccc(Cl)cc1Cl [Example 17, 5-Chloro-2-(2,4-dichloro-phenoxy)-4-pyrrol-1-yl-phenol] | 86 to 87 | 100 (≈ 0.282 mM) | 250 (≈ 0.705 mM) |  | 50 (≈ 0.141 mM) |
| N#Cc1ccccc1Oc1cc(-n2cccc2)ccc1O [Example 18, 2-(2-Hydroxy-5-pyrrol-1-yl-phenoxy)-benzonitrile] |  | > 25000 | 4000 (≈ 14.5 mM) | 4000 (≈ 14.5 mM) | > 25000 |
| O=C(Nc1cc(Oc2ccc(Cl)cc2Cl)c(O)cc1Cl)c1ccco1 [Example 20, Furan-2-carboxylic acid [2-chloro-5-(2,4-dichloro-phenoxy)-4-hydroxy-phenyl]-amide] |  | > 25000 | 4000 (≈ 10 mM) | 2000 (≈ 5.02 mM) | > 25000 |
| Cc1nnsc1C(=O)Nc1cc(Oc2ccc(Cl)cc2Cl)c(O)cc1Cl [Example 21, 4-Methyl-[1,2,3]thiadiazole-5-carboxylic acid [2-chloro-5-(2,4-dichloro-phenoxy)-4-hydroxy-phenyl]-amide] |  |  | 4000 (≈ 9.29 mM) | 4000 (≈ 9.29 mM) |  |
| Cc1cc(C(=O)Nc2cc(Oc3ccc(Cl)cc3Cl)c(O)cc2Cl)no1 [Example 22, 5-Methyl-isoxazole-3-carboxylic acid [2-chloro-5-(2,4-dichloro-phenoxy)-4-hydroxy-phenyl]-amide] |  |  | 2000 (≈ 4.84 mM) | 500 (≈ 1.21 mM) |  |
| CC(=O)Nc1nc(C)c(S(=O)(=O)Nc2cc(Oc3ccc(Cl)cc3Cl)c(O)cc2Cl)s1 [Example 23, N-{5-[2-Chloro-5-(2,4-dichloro-phenoxy)-4-hydroxy-phenylsulfamoyl]-4-methyl-thiazol-2-yl}-acetamide] |  |  | 4000 (≈ 7.65 mM) | 15700 (≈ 30 mM) |  |
| Cc1cc(O)c(Oc2ccccc2C#N)cc1-c1cccs1 [Example 26, 2-(2-Hydroxy-4-methyl-5-thiophen-2-yl-phenoxy)-benzonitrile] |  | 12500 (≈ 40.7 mM) | 4000 (≈ 13 mM) | 500 (≈ 1.63 mM) | 12500 (≈ 40.7 mM) |
| Cc1cc(O)c(Oc2ccccc2C#N)cc1-c1ccsc1 [Example 27, 2-(2-Hydroxy-4-methyl-5-thiophen-3-yl-phenoxy)-benzonitrile] |  | 1600 (≈ 5.21 mM) | 6200 (≈ 20.2 mM) | > 25000 | 800 (≈ 2.6 mM) |
| Cc1cc(O)c(Oc2ccccc2C#N)cc1-c1ccco1 [Example 28, 2-(5-Furan-2-yl-2-hydroxy-4-methyl-phenoxy)-benzonitrile] |  | 800 (≈ 2.75 mM) | 2000 (≈ 6.87 mM) | 500 (≈ 1.72 mM) | 1600 (≈ 5.49 mM) |
| Cc1cc(O)c(Oc2ccccc2C#N)cc1-n1cccc1 [Example 29, 2-(2-Hydroxy-4-methyl-5-pyrrol-1-yl-phenoxy)-benzonitrile] | 158 to 160 |  | 62500 (≈ 215 mM) | 500 (≈ 1.72 mM) | 4000 (≈ 13.8 mM) |
| Cc1cc(O)c(Oc2ccccc2C#N)cc1N1CCOCC1 [Example 31, 2-(2-Hydroxy-4-methyl-5-morpholin-4-yl-phenoxy)-benzonitrile] |  | 6200 (≈ 20 mM) | 7900 (≈ 25.5 mM) | 4000 (≈ 12.9 mM) | 3100 (≈ 9.99 mM) |
| Oc1cc(Cl)c(-n2cnnn2)cc1Oc1ccc(Cl)cc1Cl [Example 32, 5-Chloro-2-(2,4-dichloro-phenoxy)-4-tetrazol-1-yl-phenol] | 147 to 148 | 800 (≈ 2.24 mM) | 1600 (≈ 4.47 mM) | 3100 (≈ 8.67 mM) | 1300 (≈ 3.64 mM) |
| Oc1cc(Cl)c(-c2nnn[nH]2)cc1Oc1ccc(Cl)cc1Cl [Example 33, 5-Chloro-2-(2,4-dichloro-phenoxy)-4-(1H-tetrazol-5-yl)-phenol] | 174 to 180 | 12500 (≈ 35 mM) | 200 (≈ 0.559 mM) |  | 6200 (≈ 17.3 mM) |
| N/C(=N/O)c1cc(Oc2ccc(Cl)cc2Cl)c(O)cc1Cl [Example 34, 2-Chloro-5-(2,4-dichloro-phenoxy)-4,N-dihydroxy-benzamidine] | 137 | 200 (≈ 0.575 mM) | 100 (≈ 0.288 mM) |  | 100 (≈ 0.288 mM) |
| CCOC(=O)c1nc(-c2cc(Oc3ccc(Cl)cc3Cl)c(O)cc2Cl)no1 [Example 35, 3-[2-Chloro-5-(2,4-dichloro-phenoxy)-4-hydroxy-phenyl][1,2,4]oxadiazole-5-carboxylic acid ethyl ester] | 130 | 100 (≈ 0.233 mM) | 200 (≈ 0.466 mM) |  | 100 (≈ 0.233 mM) |
| O=C(O)c1nc(-c2cc(Oc3ccc(Cl)cc3Cl)c(O)cc2Cl)no1 [Example 36, 3-[2-Chloro-5-(2,4-dichloro-phenoxy)-4-hydroxy-phenyl]-[1,2,4]oxadiazole-5-carboxylic acid] | 115 | 50 (≈ 0.125 mM) | 200 (≈ 0.498 mM) |  | 100 (≈ 0.249 mM) |
